Experimental findings from ChEMBL document CHEMBL2169878 (J Med Chem, 2012) are described below.

The source made the active and inactive calls. The rule behind the calls is not given here.

Series [1] concerns Plasmodium berghei. Briefly: Antimalarial activity against Plasmodium berghei ANKA expressing GFP infected in mouse assessed as reduction in parasitemia at 30 mg/kg, po administered at 6,24,48 and 72 hrs post-infection measured 24 hrs post-final dosing by flow cytometric analysis. Set-up: scale not given: the % may be the effect or the level left. Type of series: functional.
In series [2] the test system is Salmonella typhimurium. Briefly: Mutagenicity against Salmonella typhimurium TA100 assessed as revertants at 17 uM incubated for 90 mins followed by drug washout measured after 2 days relative to positive control. As to conditions: salmonella enterica subsp. enterica serovar typhimurium. Type of series: toxicity, organism-based.
The target in series [3] is Chloroquine resistance transporter (Plasmodium falciparum, UniProt Q9N623). Briefly: Inhibition of chloroquine-resistant Plasmodium falciparum Dd2 CRT expressed in Xenopus laevis oocyte assessed as inhibition of [3H]chloroquine uptake measured from 1 to 2 hrs.
Series [4] relates to Plasmodium falciparum. Briefly: Resistance ratio of IC50 for chloroquine-resistant Plasmodium falciparum W2 to IC50 for chloroquine-sensitive Plasmodium falciparum D10. Type of series: functional.
The test system of series [5] is Salmonella typhimurium. The experiment in a line: Mutagenicity against Salmonella typhimurium TA100 assessed as revertants at 3 uM incubated for 90 mins followed by drug washout measured after 2 days relative to positive control. Type of series: toxicity, organism-based. The following applies: salmonella enterica subsp. enterica serovar typhimurium, 1.5 h.
Series [6] relates to Salmonella typhimurium. Briefly: Mutagenicity against Salmonella typhimurium TA100 assessed as revertants at 8 uM incubated for 90 mins followed by drug washout measured after 2 days relative to positive control. Type of series: toxicity, organism-based. The following applies: salmonella enterica subsp. enterica serovar typhimurium.
The subject of series [7] is Plasmodium berghei. Briefly: Antimalarial activity against Plasmodium berghei ANKA expressing GFP infected in mouse assessed as reduction in parasitemia at 30 mg/kg, po administered QD for 3 days measured 24 hrs post-final dosing by flow cytometric analysis. Set-up: scale not given: the % may be the effect or the level left. Type of series: functional. On the technique in general: Flow cytometry measures light scatter and fluorescence of single cells or particles in a stream.

The subject of series [8] is Salmonella typhimurium. Briefly: Mutagenicity against Salmonella typhimurium TA98 assessed as revertants at 4 uM incubated for 90 mins followed by drug washout measured after 2 days relative to positive control. Type of series: toxicity, organism-based. The following applies: salmonella enterica subsp. enterica serovar typhimurium.
For series [9], the system named is Salmonella typhimurium. Briefly: Mutagenicity against Salmonella typhimurium TA98 assessed as revertants at 1 uM incubated for 90 mins followed by drug washout measured after 2 days relative to positive control. Type of series: toxicity, organism-based. The following applies: salmonella enterica subsp. enterica serovar typhimurium.
Series [10] concerns Plasmodium berghei. The experiment in a line: Antimalarial activity against Plasmodium berghei ANKA expressing GFP infected in mouse assessed as mean survival days at 30 mg/kg, po administered 24 hrs post-infection (reference value: 6 to 7 days). Type of series: functional.
The test system of series [11] is Salmonella typhimurium. The experiment in a line: Mutagenicity against Salmonella typhimurium TA98 assessed as revertants at 2 uM incubated for 90 mins followed by drug washout measured after 2 days relative to positive control. Type of series: toxicity, organism-based. The following applies: salmonella enterica subsp. enterica serovar typhimurium, 1.5 h.
The subject of series [12] is Plasmodium falciparum. The experiment in a line: Antiplasmodial activity against chloroquine-resistant Plasmodium falciparum W2 infected in human RBC after 72 hrs by parasite lactate dehydrogenase assay. Type of series: functional, organism-based. The following applies: W2, 72 h.
The subject of series [13] is Plasmodium berghei. The experiment in a line: Antimalarial activity against Plasmodium berghei ANKA expressing GFP infected in mouse assessed as cure from infection at 50 mg/kg, po administered QD for 3 days measured on day 30. Type of series: functional, organism-based. Set-up: dose 50 mg/kg.
For series [14], the system named is Plasmodium falciparum. Briefly: Antiplasmodial activity against chloroquine-sensitive Plasmodium falciparum D10 infected in human RBC after 72 hrs by parasite lactate dehydrogenase assay. Type of series: functional, organism-based. As to conditions: D10, 72 h.
Series [15] deals with T1, Chloroquine resistance transporter (Plasmodium falciparum) (UniProt Q9N623).
T1 sequence (whole entry): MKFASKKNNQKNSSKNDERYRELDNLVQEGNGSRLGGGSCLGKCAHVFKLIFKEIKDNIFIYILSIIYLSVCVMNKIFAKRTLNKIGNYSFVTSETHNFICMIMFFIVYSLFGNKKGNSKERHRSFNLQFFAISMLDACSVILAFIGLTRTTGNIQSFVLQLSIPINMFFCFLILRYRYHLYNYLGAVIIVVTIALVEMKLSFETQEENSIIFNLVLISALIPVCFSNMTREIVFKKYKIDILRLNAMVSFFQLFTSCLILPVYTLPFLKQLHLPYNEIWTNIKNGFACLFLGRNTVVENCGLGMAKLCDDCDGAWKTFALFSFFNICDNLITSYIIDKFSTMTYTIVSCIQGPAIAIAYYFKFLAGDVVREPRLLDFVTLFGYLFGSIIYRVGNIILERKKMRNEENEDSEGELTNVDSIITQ
Briefly: Inhibition of chloroquine-sensitive Plasmodium falciparum D10 CRT expressed in Xenopus laevis oocyte assessed as inhibition of [3H]chloroquine uptake at 100 uM measured from 1 to 2 hrs.

The test system of series [16] is Salmonella typhimurium. The experiment in a line: Mutagenicity against Salmonella typhimurium TA98 assessed as revertants at 34 uM incubated for 90 mins followed by drug washout measured after 2 days relative to positive control. The following applies: salmonella enterica subsp. enterica serovar typhimurium, 1.5 h. Type of series: toxicity, organism-based.
The subject of series [17] is Plasmodium berghei. Briefly: Antimalarial activity against Plasmodium berghei ANKA expressing GFP infected in mouse assessed as cure from infection at 100 mg/kg, po administered 24 hrs post-infection measured on day 30. Set-up: dose 100 mg/kg. Type of series: functional, organism-based.
For series [18], the system named is Plasmodium berghei. The experiment in a line: Antimalarial activity against Plasmodium berghei ANKA expressing GFP infected in mouse assessed as reduction in parasitemia at 50 mg/kg, po administered QD for 3 days measured 24 hrs post-final dosing by flow cytometric analysis. The arrangement: scale not given: the % may be the effect or the level left. Type of series: functional.

Series [19] concerns Plasmodium berghei. The experiment in a line: Antimalarial activity against Plasmodium berghei ANKA expressing GFP infected in mouse assessed as cure from infection at 30 mg/kg, po administered QD for 3 days measured on day 30. Type of series: functional, organism-based. Set-up: dose 30 mg/kg.
Series [20] has as its system Plasmodium falciparum. Briefly: Resistance ratio of IC50 for chloroquine-resistant Plasmodium falciparum K1 to IC50 for chloroquine-sensitive Plasmodium falciparum NF54. Type of series: functional.
Series [21] has as its system Salmonella typhimurium. The experiment in a line: Mutagenicity against Salmonella typhimurium TA100 assessed as revertants at 1.5 uM incubated for 90 mins followed by drug washout measured after 2 days relative to positive control. As to conditions: salmonella enterica subsp. enterica serovar typhimurium, 1.5 h. Type of series: toxicity, organism-based.
Series [22] can be described thus: Cytotoxicity against human HepG2 cells after 24 hrs by neutral red dye uptake assay. Type of series: cell-based. As to conditions: read-out: TC50.
In series [23] the test system is Salmonella typhimurium. Briefly: Mutagenicity against Salmonella typhimurium TA98 assessed as revertants at 8 uM incubated for 90 mins followed by drug washout measured after 2 days relative to positive control. As to conditions: salmonella enterica subsp. enterica serovar typhimurium, 1.5 h. Type of series: toxicity, organism-based.
Series [24] relates to Plasmodium berghei. Briefly: Antimalarial activity against Plasmodium berghei ANKA expressing GFP infected in mouse assessed as mean survival days at 30 mg/kg, po administered QD for 3 days (reference value: 6 to 7 days). Type of series: functional.
Series [25] deals with Plasmodium berghei. The experiment in a line: Antimalarial activity against Plasmodium berghei ANKA expressing GFP infected in mouse assessed as reduction in parasitemia at 30 mg/kg, po administered 24 hrs post-infection measured 48 hrs post-dosing by flow cytometric analysis. Type of series: functional. The arrangement: scale not given: the % may be the effect or the level left.

Series [26] has as its system Salmonella typhimurium. The experiment in a line: Mutagenicity against Salmonella typhimurium TA100 assessed as revertants at 1 uM incubated for 90 mins followed by drug washout measured after 2 days relative to positive control. As to conditions: salmonella enterica subsp. enterica serovar typhimurium, 1.5 h. Type of series: toxicity, organism-based.
Series [27] deals with Plasmodium berghei. Briefly: Antimalarial activity against Plasmodium berghei ANKA expressing GFP infected in mouse assessed as mean survival days at 30 mg/kg, po administered at 6,[…],[…] and 72 hrs post-infection (reference value: 6 to 7 days). Type of series: functional.
The nature of series [28]: Cytotoxicity against mouse NIH3T3 cells after 24 hrs by neutral red dye uptake assay. Type of series: cell-based. The following applies: read-out: TC50.
Series [29] deals with Salmonella typhimurium. The experiment in a line: Mutagenicity against Salmonella typhimurium TA100 assessed as revertants at 34 uM incubated for 90 mins followed by drug washout measured after 2 days relative to positive control. Type of series: toxicity, organism-based. The following applies: salmonella enterica subsp. enterica serovar typhimurium.
Series [30] relates to Plasmodium falciparum. The experiment in a line: Antiplasmodial activity against chloroquine-sensitive Plasmodium falciparum NF54 infected in human erythrocytes assessed as inhibition of [3H]hypoxanthine incorporation incubated for 48 hrs prior to [3H]hypoxanthine addition measured after 48 hrs by liquid scintillation counting. Type of series: functional, organism-based.
The subject of series [31] is Plasmodium berghei. The experiment in a line: Antimalarial activity against Plasmodium berghei ANKA expressing GFP infected in mouse assessed as cure from infection at 30 mg/kg, po administered at 6,24,48 and 72 hrs post-infection measured on day 30. Type of series: functional, organism-based. Set-up: dose 30 mg/kg.
Series [32] deals with Plasmodium falciparum. The experiment in a line: Antiplasmodial activity against chloroquine-resistant Plasmodium falciparum K1 infected in human erythrocytes assessed as inhibition of [3H]hypoxanthine incorporation incubated for 48 hrs prior to [3H]hypoxanthine addition measured after 48 hrs by liquid scintillation counting. Type of series: functional, organism-based.
In series [33] the test system is Plasmodium berghei. Briefly: Antimalarial activity against Plasmodium berghei ANKA expressing GFP infected in mouse assessed as mean survival days at 100 mg/kg, po administered 24 hrs post-infection (reference value: 6 to 7 days). Type of series: functional.
For series [34], the system named is Plasmodium berghei. Briefly: Antimalarial activity against Plasmodium berghei ANKA expressing GFP infected in mouse assessed as cure from infection at 30 mg/kg, po administered 24 hrs post-infection measured on day 30. Type of series: functional, organism-based. Set-up: dose 30 mg/kg.
Series [35] concerns Plasmodium berghei. Briefly: Antimalarial activity against Plasmodium berghei ANKA expressing GFP infected in mouse assessed as reduction in parasitemia at 100 mg/kg, po administered 24 hrs post-infection measured 48 hrs post-dosing by flow cytometric analysis. The arrangement: scale not given: the % may be the effect or the level left. Type of series: functional.
Series [36] relates to Plasmodium berghei. Briefly: Antimalarial activity against Plasmodium berghei ANKA expressing GFP infected in mouse assessed as mean survival days at 50 mg/kg, po administered QD for 3 days (reference value: 6 to 7 days). Type of series: functional.
Series [37] deals with Salmonella typhimurium. The experiment in a line: Mutagenicity against Salmonella typhimurium TA98 assessed as revertants at 17 uM incubated for 90 mins followed by drug washout measured after 2 days relative to positive control. As to conditions: salmonella enterica subsp. enterica serovar typhimurium. Type of series: toxicity, organism-based.
Series [38] addresses T1, Chloroquine resistance transporter (Plasmodium falciparum). Briefly: Inhibition of chloroquine-resistant Plasmodium falciparum Dd2 CRT expressed in Xenopus laevis oocyte assessed as inhibition of [3H]chloroquine uptake at 100 uM measured from 1 to 2 hrs.
Series [39] deals with Heart. The experiment in a line: Cardiotoxicity against Sprague-Dawley rat Langendorff perfused heart assessed as QT time interval at 30 uM by electrophysiological analysis (reference value: 68.51 2.73 ms). Type of series: toxicity, tissue-based.
For series [40], the system named is Heart. Briefly: Cardiotoxicity against Sprague-Dawley rat Langendorff perfused heart assessed as QT time interval at 10 uM by electrophysiological analysis (reference value: 68.51 2.73 ms). Type of series: toxicity, tissue-based.

Consider `Clc1cccc(C(Nc2ccnc3cc(Cl)ccc23)c2ccc(CN3CCNCC3)cc2)c1` (racemic), for which the Activity in series [1] is recorded as 99.9%; in series [2] it was 7%; in series [5], 3%; in series [6], 5%; in [7] it was 99.8%; in series [8], 4%. Moreover, the Activity is recorded as 9% in series [9]; 7% in series [11]; 4% in series [16]; 99.8% in [18]; 5% in [21]; 16% in series [23]. The Activity in [25] came out at 99.7%; in series [26], 6%; in series [29], 2%; in series [35], 99.6%; in series [37] it was 11%. For the same compound, the IC50 (in general, the point on the concentration scale where inhibition reaches its midpoint) in series [3] is 10500 nM; in [12], 33 nM; in series [14], 25 nM; in [30], 19 nM; in series [32] it was 23 nM. The “Ratio IC50” value turned out to be 1.4 in series [4] and 1.2 in series [20]. For the same compound, the MSD in [10] stood at 24 days; in [24], 30 days; in [27] it was 30 days; in series [33], 29.6 days; in [36] it was 30 days. For the same compound, the result in series [13] and in [34] was inactive. Moreover, the inhibition result in series [15] is “inactive”. Moreover, the outcome in series [17], in [19] and in [31] was Active. Besides, the CC50 at 24 h in series [22] was less than 4000 nM; in series [28], 16000 nM. In series [38], the inhibition result is “Active”.
Take `CC(C)(C)c1ccc(C(O)CCCN2CCC(C(O)(c3ccccc3)c3ccccc3)CC2)cc1` (stereo not given) [TERFENADINE]: the results for the Time in series [39] and in series [40] were 125 ms and 99.83 ms, respectively.
